Assay [1] has as its target T1, meprin α (Homo sapiens, UniProt Q16819).
T1 construct: Strep-tag; made in house; host or cells: BTI-TN-5B1-4 insect cells (baculovirus, amplified in Sf9)
T1 sequence (Q16819 66-746): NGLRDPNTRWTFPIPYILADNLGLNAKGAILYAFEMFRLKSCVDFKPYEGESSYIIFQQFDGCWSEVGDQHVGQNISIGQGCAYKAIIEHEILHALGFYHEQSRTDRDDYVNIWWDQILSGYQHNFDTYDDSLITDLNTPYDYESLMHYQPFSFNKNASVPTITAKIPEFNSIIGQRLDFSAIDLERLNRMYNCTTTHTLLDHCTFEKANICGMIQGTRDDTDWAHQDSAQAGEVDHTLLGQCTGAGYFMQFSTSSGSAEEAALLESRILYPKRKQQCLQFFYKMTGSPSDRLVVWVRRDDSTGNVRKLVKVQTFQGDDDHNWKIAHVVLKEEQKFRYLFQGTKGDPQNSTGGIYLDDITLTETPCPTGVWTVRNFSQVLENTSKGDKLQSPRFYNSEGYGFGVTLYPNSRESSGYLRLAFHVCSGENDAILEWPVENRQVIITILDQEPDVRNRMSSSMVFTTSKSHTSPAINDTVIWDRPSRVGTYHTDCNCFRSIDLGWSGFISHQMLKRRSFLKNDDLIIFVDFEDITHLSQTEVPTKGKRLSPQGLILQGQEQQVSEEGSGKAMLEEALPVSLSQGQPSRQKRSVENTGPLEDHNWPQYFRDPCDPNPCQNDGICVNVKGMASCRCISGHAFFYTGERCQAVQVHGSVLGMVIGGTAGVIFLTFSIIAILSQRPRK
Kind of assay: Meprin α assay in a 384-well plate (fluorogenic substrate Mca-YVADAPK-K(Dnp)). In kind it is biochemical. The protocol: (§1) Recombinant human meprin α and meprin β were expressed using the Bac-to-Bac expression system (Gibco Life Technologies, Paisley, UK) as described before. Media and supplements were obtained from Gibco Life Technologies. Recombinant Baculoviruses were amplified in adherently growing Spodoptera frugiperda (Sf)9 insect cells at 27 °C in Grace’s insect medium supplemented with 10% fetal bovine serum, 50 units/mL penicillin, and 50 μg/mL streptomycin. Protein expression was performed in 500 mL suspension cultures of BTI-TN-5B1-4 insect cells growing in Express Five SFM supplemented with 4 mM glutamine, 50 units/mL penicillin, and 50 μg/mL streptomycin in Fernbach-flasks using a Multitron orbital shaker (INFORS AG, Bottmingen, Switzerland). Cells were infected at a density of 2 × 10^6 cells/mL with an amplified viral stock at a MOI of ~10. […] Meprins were activated by trypsin, which was removed afterwards by affinity chromatography using a column containing immobilized chicken ovomucoid, a trypsin inhibitor.
(§2) Both assays followed the same general protocol. […] After 30 min incubation at RT, the reactions were started by addition of 5 µL of 2× solutions of substrates (20 µM, meprin α Mca-YVADAPK-K(Dnp), and for meprin β Mca-EDEDED-K(Dnp)).

For assay [2], the target named is T2, human meprin β (Homo sapiens, UniProt Q16820).
T2 construct: His-tag; made in house; host or cells: BTI-TN-5B1-4 insect cells (baculovirus, amplified in Sf9)
T2 sequence (Q16820 62-701): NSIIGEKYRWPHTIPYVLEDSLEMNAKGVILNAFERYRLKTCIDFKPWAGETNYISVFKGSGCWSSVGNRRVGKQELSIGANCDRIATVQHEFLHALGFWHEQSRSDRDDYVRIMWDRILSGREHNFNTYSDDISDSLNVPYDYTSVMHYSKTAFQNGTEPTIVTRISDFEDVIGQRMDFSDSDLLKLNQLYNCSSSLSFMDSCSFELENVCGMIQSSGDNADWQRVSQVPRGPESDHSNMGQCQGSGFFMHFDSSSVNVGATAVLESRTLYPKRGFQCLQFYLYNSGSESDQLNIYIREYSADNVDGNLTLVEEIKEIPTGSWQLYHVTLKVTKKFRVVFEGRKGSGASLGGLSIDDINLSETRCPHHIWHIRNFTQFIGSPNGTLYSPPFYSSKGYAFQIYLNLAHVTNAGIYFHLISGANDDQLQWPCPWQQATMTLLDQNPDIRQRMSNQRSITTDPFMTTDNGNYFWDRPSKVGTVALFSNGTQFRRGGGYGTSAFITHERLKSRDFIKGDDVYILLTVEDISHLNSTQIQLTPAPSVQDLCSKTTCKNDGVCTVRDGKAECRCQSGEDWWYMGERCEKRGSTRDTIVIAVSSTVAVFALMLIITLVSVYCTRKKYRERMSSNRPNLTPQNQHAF
The experiment in a line: Meprin β assay in a 384-well plate (fluorogenic substrate Mca-EDEDED-K(Dnp)). In kind it is biochemical. On the procedure:
as §1, §2

Assay [3] addresses T3, ADAM10 (Homo sapiens, UniProt O14672).
T3 construct: purchased R&D Systems 936-AD
T3 sequence (O14672 214-748): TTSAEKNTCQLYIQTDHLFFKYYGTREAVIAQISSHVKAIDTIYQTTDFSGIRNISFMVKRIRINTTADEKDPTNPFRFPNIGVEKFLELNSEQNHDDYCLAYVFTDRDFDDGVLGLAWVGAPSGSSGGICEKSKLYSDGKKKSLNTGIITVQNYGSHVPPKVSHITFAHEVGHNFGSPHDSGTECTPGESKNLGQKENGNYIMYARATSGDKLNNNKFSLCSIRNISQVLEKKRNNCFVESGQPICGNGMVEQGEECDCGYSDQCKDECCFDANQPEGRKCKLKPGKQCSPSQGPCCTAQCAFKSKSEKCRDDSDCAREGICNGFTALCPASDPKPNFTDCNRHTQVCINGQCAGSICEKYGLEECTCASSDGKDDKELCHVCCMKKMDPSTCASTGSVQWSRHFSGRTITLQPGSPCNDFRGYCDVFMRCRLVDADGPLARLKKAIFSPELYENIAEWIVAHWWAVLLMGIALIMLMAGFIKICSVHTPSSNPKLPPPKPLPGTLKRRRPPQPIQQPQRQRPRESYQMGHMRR
The following applies: single value given, at 10 μM ref 11; cited from earlier work.

In assay [4] the target is T4, MMP13 (Homo sapiens, UniProt P45452).
T4 construct: purchased R&D Systems 511-MM
The following applies: single value given, at 10 μM ref 11; cited from earlier work.

In assay [5] the target is T5, ADAM17 (Homo sapiens, UniProt P78536).
T5 construct: purchased R&D Systems 930-ADB
The conditions noted are these: single value given, at 10 μM ref 11; cited from earlier work.

In assay [6] the target is T6, MMP9 (Homo sapiens, UniProt P14780).
T6 construct: purchased R&D Systems 911-MP
The following applies: single value given, at 10 μM ref 11; cited from earlier work.

Assay [7] concerns Meprin α. The conditions noted are these: cited from earlier work.
Assay [8] addresses T7, MMP2 (Homo sapiens, UniProt P08253).
T7 construct: purchased R&D Systems 902-MP
T7 sequence (P08253 110-660): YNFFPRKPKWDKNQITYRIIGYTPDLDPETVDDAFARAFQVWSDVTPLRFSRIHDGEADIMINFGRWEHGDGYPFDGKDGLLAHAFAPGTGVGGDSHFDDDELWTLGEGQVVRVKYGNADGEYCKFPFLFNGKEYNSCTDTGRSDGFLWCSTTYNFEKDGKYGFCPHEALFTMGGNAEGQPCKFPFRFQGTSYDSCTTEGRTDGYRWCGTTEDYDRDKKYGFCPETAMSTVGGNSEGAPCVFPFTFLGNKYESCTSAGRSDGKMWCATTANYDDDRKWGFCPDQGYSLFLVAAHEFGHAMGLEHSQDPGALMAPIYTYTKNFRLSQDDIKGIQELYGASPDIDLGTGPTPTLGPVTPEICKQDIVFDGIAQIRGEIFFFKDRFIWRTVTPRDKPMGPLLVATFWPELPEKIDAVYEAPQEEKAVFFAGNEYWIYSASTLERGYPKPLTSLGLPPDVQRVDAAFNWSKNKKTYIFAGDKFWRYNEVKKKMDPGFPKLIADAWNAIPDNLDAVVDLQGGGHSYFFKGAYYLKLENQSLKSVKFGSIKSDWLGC
The conditions noted are these: single value given, at 10 μM ref 11; cited from earlier work.

Molecules are shown by their SMILES. Values joined by “and” are separate entries in the source; they are usually repeats but may differ in a detail not shown here. Equal values may be shown once. Read-outs that look alike come from different tables or passages of the source.

A word on the IC50: it is the midpoint of a concentration-inhibition curve.

T6 sequence (P14780 94-707): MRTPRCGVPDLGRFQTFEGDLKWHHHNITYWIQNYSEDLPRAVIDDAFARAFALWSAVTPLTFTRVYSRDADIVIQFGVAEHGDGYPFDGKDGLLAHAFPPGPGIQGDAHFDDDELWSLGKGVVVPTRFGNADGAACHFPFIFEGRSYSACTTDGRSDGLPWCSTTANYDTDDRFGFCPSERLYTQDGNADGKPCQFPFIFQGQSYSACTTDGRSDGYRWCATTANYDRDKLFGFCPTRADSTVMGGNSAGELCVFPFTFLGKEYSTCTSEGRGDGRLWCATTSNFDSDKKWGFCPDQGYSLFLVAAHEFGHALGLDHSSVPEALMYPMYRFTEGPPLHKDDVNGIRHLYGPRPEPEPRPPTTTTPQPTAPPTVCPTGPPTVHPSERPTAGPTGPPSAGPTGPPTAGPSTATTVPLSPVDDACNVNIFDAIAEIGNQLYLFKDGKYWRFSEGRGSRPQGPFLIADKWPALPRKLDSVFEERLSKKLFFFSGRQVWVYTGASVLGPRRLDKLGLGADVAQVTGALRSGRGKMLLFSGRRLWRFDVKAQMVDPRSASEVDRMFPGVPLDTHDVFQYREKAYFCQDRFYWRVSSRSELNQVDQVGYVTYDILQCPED
T5 sequence (P78536 215-824): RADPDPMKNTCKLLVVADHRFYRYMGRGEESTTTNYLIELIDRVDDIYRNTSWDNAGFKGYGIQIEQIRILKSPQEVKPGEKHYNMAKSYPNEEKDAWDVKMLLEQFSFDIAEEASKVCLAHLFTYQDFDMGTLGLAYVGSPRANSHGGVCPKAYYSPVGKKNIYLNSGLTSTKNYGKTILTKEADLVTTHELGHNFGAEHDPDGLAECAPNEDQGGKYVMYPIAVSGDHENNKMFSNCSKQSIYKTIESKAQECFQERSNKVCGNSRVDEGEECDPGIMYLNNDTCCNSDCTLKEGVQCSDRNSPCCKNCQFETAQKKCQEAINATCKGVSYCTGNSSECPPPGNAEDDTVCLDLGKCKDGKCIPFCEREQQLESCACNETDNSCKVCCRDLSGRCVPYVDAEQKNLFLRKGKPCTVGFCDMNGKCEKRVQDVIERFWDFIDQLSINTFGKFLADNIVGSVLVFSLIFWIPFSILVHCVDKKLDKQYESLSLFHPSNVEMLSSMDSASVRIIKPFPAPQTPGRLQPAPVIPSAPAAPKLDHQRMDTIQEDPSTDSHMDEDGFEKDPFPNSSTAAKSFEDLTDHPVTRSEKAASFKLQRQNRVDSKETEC

As for `COc1cc(OC)nc(SCc2nnc(SCC(=O)NO)n2-c2ccccc2OC)n1` [SR24459, 2-((5-(((4,6-dimethoxypyrimidin-2-yl)thio)methyl)-4-(2-methoxyphenyl)-4H-1,2,4-triazol-3-yl)thio)-N-hydroxyacetamide], the IC50 in assay [1] (triplicate, ± SD) stood at 12.1 ± 3.9 µM; in assay [2] (triplicate, ± SD), 52 ± 1 µM.
Turning to `COc1cc(OC)nc(SCc2nnc(SCC(=O)NO)n2-c2cccc(C)c2)n1` [SR24467, 2-((5-(((4,6-dimethoxypyrimidin-2-yl)thio)methyl)-4-(m-tolyl)-4H-1,2,4-triazol-3-yl)thio)-N-hydroxyacetamide], the IC50 in assay [1] (triplicate, ± SD) was 2 µM and 10.3 µM; in assay [2] (triplicate, ± SD), greater than 100 µM.
For `COc1cccc(-n2c(CSc3nc(OC)cc(OC)n3)nnc2SCC(=O)NO)c1` [SR24460, 2-((5-(((4,6-dimethoxypyrimidin-2-yl)thio)methyl)-4-(3-methoxyphenyl)-4H-1,2,4-triazol-3-yl)thio)-N-hydroxyacetamide], the IC50 in assay [1] (triplicate, ± SD) came out at 10.3 ± 1.1 µM; in assay [2] (triplicate, ± SD), 59 ± 10 µM.
`COc1cc(OC)nc(SCc2nnc(SCC(=O)NO)n2-c2ccc(C(F)(F)F)cc2)n1` [SR24003, 2-((5-(((4,6-dimethoxypyrimidin-2-yl)thio)methyl)-4-(4-(trifluoromethyl)phenyl)-4H-1,2,4-triazol-3-yl)thio)-N-hydroxyacetamide]: the IC50 is 5.4 ± 1.2 µM in assay [1] (triplicate, ± SD) and greater than 100 µM in assay [2] (triplicate, ± SD).
For the compound `COc1cc(OC)nc(SCc2nnc(SCC(=O)NO)n2-c2ccc(Br)cc2)n1` [SR24462, 2-((4-(4-bromophenyl)-5-(((4,6-dimethoxypyrimidin-2-yl)thio)methyl)-4H-1,2,4-triazol-3-yl)thio)-N-hydroxyacetamide], the IC50 in assay [1] (triplicate, ± SD) is 11.2 ± 2.6 µM; in assay [2] (triplicate, ± SD), greater than 100 µM.
In the same order, the values of `COc1ccc(-n2c(CSc3nc(C)cc(C)n3)nnc2SCC(=O)NO)cc1` [SR24139, 2-((5-(((4,6-dimethylpyrimidin-2-yl)thio)methyl)-4-(4-methoxyphenyl)-4H-1,2,4-triazol-3-yl)thio)-N-hydroxyacetamide] are 4.1 ± 0.8 µM and 60 ± 7 µM.
Take `COc1cc(OC)nc(SCc2nnc(SCC(=O)NO)n2-c2ccc(F)cc2)n1` [SR24463, 2-((5-(((4,6-dimethoxypyrimidin-2-yl)thio)methyl)-4-(4-fluorophenyl)-4H-1,2,4-triazol-3-yl)thio)-N-hydroxyacetamide]: the IC50 is 10.4 ± 2.8 µM in assay [1] (triplicate, ± SD) and greater than 100 µM in assay [2] (triplicate, ± SD).
In the same order, the values of `COc1cc(OC)nc(SCc2nnc(SCC(=O)NO)n2-c2cccnc2)n1` [SR24718, 2-((5-(((4,6-dimethoxypyrimidin-2-yl)thio)methyl)-4-(pyridin-3-yl)-4H-1,2,4-triazol-3-yl)thio)-N-hydroxyacetamide] are 10.1 ± 2.3 µM and greater than 100 µM.
In the case of `O=C(CSc1nnc(NC(=O)COc2ccccc2)s1)NO` [SR19848], the IC50 in assay [1] was 0.217 µM; in assay [2], 0.329 µM. Further, in assay [1] (Figure 1), the “meprin α/β selectivity (in words)” value was “no meprin α/β selectivity”.
Consider `COc1cc(OC)nc(SCc2nnc(SCC(=O)NO)n2-c2cccc3ccccc23)n1` [SR26467, 2-((5-(((4,6-dimethoxypyrimidin-2-yl)thio)methyl)-4-(naphthalen-1-yl)-4H-1,2,4-triazol-3-yl)thio)-N-hydroxyacetamide], for which the IC50 in assay [1] (triplicate, ± SD) is 2 ± 0.3 µM; in assay [2] (triplicate, ± SD), greater than 100 µM.
As to `CCN(CC)c1ccc(-n2c(CSc3nc(OC)cc(OC)n3)nnc2SCC(=O)NO)cc1` [SR26465, 2-((4-(4-(diethylamino)phenyl)-5-(((4,6-dimethoxypyrimidin-2-yl)thio)methyl)-4H-1,2,4-triazol-3-yl)thio)-N-hydroxyacetamide], the “meprin α/β fold selectivity (ratio of IC50 values)” value in assay [1] (meprin α over meprin β) was greater than 100 fold. The IC50 worked out at 0.6 ± 0.06 µM in assay [1] (triplicate, ± SD) and 75 ± 15 µM in assay [2] (triplicate, ± SD).
Regarding `COc1cc(OC)nc(SCc2nnc(SCC(=O)NO)n2-c2ccc(N3CCOCC3)cc2)n1` [SR26466, 2-((5-(((4,6-dimethoxypyrimidin-2-yl)thio)methyl)-4-(4-morpholinophenyl)-4H-1,2,4-triazol-3-yl)thio)-N-hydroxyacetamide], the IC50 in assay [1] (triplicate, ± SD) was 1.1 ± 0.1 µM; in assay [2] (triplicate, ± SD) it was greater than 100 µM.
Take `O=C(CN(Cc1ccc(Cl)c(O)c1F)Cc1ccc(Cl)c(O)c1F)NO` [1c]: the “ADAM10 % activity remaining” value in assay [3] is recorded as 86%. In addition, in assay [4], the “MMP13 % activity remaining” value is 86%. In addition, the “ADAM17 % activity remaining” value in assay [5] was 86%. The “MMP9 % activity remaining” value in assay [6] was 91%. Also, the IC50 in assay [7] is 0.19 ± 0.001 µM. Also, in assay [8], the “MMP2 % activity remaining” value is on record as 95%.
For the compound `COc1ccc(-n2c(CSc3nc(OC)cc(OC)n3)nnc2SCC(=O)NO)cc1` [SR24144, 2-((5-(((4,6-dimethoxypyrimidin-2-yl)thio)methyl)-4-(4-methoxyphenyl)-4H-1,2,4-triazol-3-yl)thio)-N-hydroxyacetamide], the IC50 in assay [1] (triplicate, ± SD) is 8.7 ± 1.1 µM; in assay [2] (triplicate, ± SD) it was greater than 100 µM. Besides, the “inhibition of meprin β at 100 μM (in words)” value in assay [2] (100 μM) was “complete lack of inhibition”.

(Values after PMC7997411, “Discovery and Optimization of Selective Inhibitors of Meprin α (Part II)” (Pharmaceuticals, 2021).)
